{"source": "patent US20190211317A1", "about": "“PEPTIDES AND NANOPARTICLES FOR INTRACELLULAR DELIVERY OF GENOME-EDITING MOLECULES” (Aadigen, LLC, priority 2016, published 2019)", "key": {"[1]": {"system": "EGFP-U2OS, EGFP-HEK, EGFP-JURKAT cells", "test": "Toxicity of CPP/CAS9/gRNA complexes (MTT assay)", "type": "cell-based", "conditions": "three cell lines; concentrations up to 100 nM; 24 h", "experimental": "The robust EGFP disruption observed in the three cell lines was found not to be the result of cellular toxicity. […] A total of 30,000 cells seeded in 24-well plates the day prior to transfection were incubated with increasing concentrations of CPP/CAS9/gRNA (complexed at a 10:1 or 20:1 molar ratio of CPP to preloaded CAS9/gRNA complex) ranging from 1 to 200 nM for 30 min prior to addition of medium to reach a final 10% concentration of FCS. Cytotoxic response was measured 24 hours later by colorimetric MTT assay (Sigma, Germany). For MTT assay, cell culture medium was removed and replaced with PBS containing 2.5 mg/ml MTT for 4 hours. Results correspond to the average of 3 separate experiments. […] Viability was reduced by less than 10% at 200 nM. In contrast, at […] for Lipofectamine 2000 or RNAiMAX, between 60-70% and 20-25% cell death was observed, depending on cell line. Moreover, both lipid methods appeared to be highly toxic on JURKAT cells, inducing 75% (lipofectamine 2000) or 45% (RNAiMAX) cell death."}, "[2]": {"system": "JURKAT and K562 cells", "test": "Toxicity of CPP/CAS9/gRNA complexes in T cell lines (MTT assay)", "type": "cell-based, human", "conditions": "up to 100 nM, 24 h", "experimental": "A total of 30,000 JURKAT or K562 cells seeded in 24-well plates the day prior to transfection were incubated with increasing concentrations of CPP/CAS9/gRNA complexed at 20:1 molar ratio (CPP to CAS9/gRNA) ranging from 1 nM to 200 nM for 30 min prior to addition of medium to reach a final 10% concentration of FCS. Cytotoxic response was measured 24 hours later by colorimetric MTT assay (Sigma, Germany). For MTT assay, cell culture medium was removed and replaced with PBS containing 2.5 mg/ml of MTT for 4 hours. Results correspond to the average of 3 independent experiments."}, "[3]": {"system": "endogenous EMX1, AAVS and HPRT genes in Mouse (ESF-158) embryonic stem cells", "test": "Delivery of multiple RGEN:gRNA complexes: EMX1, AAVS, HPRT editing in mouse ES cells (T7E1)", "type": "cell-based", "quoted_text": "RNAiMAX delivery method was used as a positive control.\nU2OS cells were treated as described previously. H9 embryonic stem cells were cultured in Dulbecco's modified Eagle's medium with 4 mM L-glutamine adjusted to contain 1.5 g/L sodium bicarbonate and 4.5 g/L glucose and supplemented with 0.1 mM 2-mercaptoethanol, 85%; and 15% ES-Cell Qualified fetal bovine serum. […] CAS9-induced double-strand break formation followed by repair through NHEJ was analyzed 72 hr after transfection by T7E1 assay and quantified using Fragment Analyzer System. The deletion (indel) frequencies in EMX1, AAVS and HPRT genes were quantified using T7E1 assay. Data for on-target mutations induced by RGEN:gRNA are reported as an average of 3 separate experiments."}, "[4]": {"system": "endogenous EMX1 and exogenous EGFP reporter genes in GFP-U2OS, EGFP-JURKAT cells", "test": "Delivery of multiple RGEN/gRNA complexes: EMX1 and EGFP editing", "type": "cell-based, human", "experimental": "RNAiMAX delivery was used as positive control. Cells were treated as described previously and CAS9-induced NHEJ analyzed 72 hr after transfection. […] The deletion (indel) frequency in the EMX1 gene was quantified using the T7E1 assay and loss of EGFP expression was monitored by flow cytometry. Data for on-target mutations induced by RGEN/gRNA are reported as an average of 3 separate experiments."}, "[5]": {"system": "HPRT gene in mouse muscle myoblast cells (C2C12)", "test": "HPRT gene editing in C2C12 myoblasts (T7E1 assay)", "type": "cell-based", "experimental": "(§1) […] Delivery by RNAiMAX was included as a positive control.\n(§2) CAS9-induced NHEJ was analyzed 72 hours after transfection by PCR (FIG. 26) and T7E1 assay (FIG. 27). The deletion (indel) frequencies in the HPRT gene were quantified using a T7E1 assay by quantifying the amount of uncut vs cut DNA using a Fragment Analyzer System. Data for on-target mutations induced by RGEN/gRNA are reported as an average of 3 separate experiments\n(§3) The cell line was maintained in 5% CO2 at 37° C. and cell viability was assessed by the Trypan Blue exclusion test. To induce myogenic differentiation, at about 80% cell confluence the medium containing 10% fetal calf serum was substituted with medium containing 1% fetal calf serum. The cells were transfected at the undifferentiated stage or at day 7 after differentiation."}, "[6]": {"system": "U2OS, HEPG2, K562 cells and primary human fibroblasts", "test": "CAS9 protein expression after CPP delivery of CAS9 mRNA (ELISA)", "type": "cell-based", "conditions": "day 3", "quoted_text": "CPP/CAS9 mRNA complexes were formed by mixing the CAS9 mRNA (0.5 μg) with CPP at a 20:1 molar ratio of CPP:CAS9 mRNA and incubating for 30 min at 37° C. prior to cell transfection. Cells were transfected according to optimized protocols for either adherent or suspension cell lines.\nHuman primary fibroblasts were freshly obtained and grown in flasks pre-coated with a gelatin-based coating solution and incubated in Culture Complete Growth Medium for 3 days before expansion and treatment. U2OS cells were cultured in Dulbecco's Modified Eagle's Medium (DMEM), supplemented with 2 mM glutamine, 1% antibiotics (streptomycin 10,000 μg/mL, penicillin, 10,000 IU/mL) and 10% (w/v) foetal calf serum (FCS), at 37° C. in a humidified atmosphere containing 5% CO2. 35 mm dishes seeded with 150,000 cells the day prior to transfection were grown to 50-60% confluence and set up to be at about 70% confluences at the time of transfection. Before transfection, cells were washed with DMEM (2×) followed by PBS (1×). Cells were then overlaid with 0.2 ml of complex solution (16 μl CPP/Cargo complex in water+184 μl OPTiMEM without antibiotics), mixed gently, and incubated for 10 min at 37° C. 0.8 mL of fresh OPTiMEM or DMEM was then added and cells were incubated for 20 min at 37° C. 2 mL of complete OPTiMEM (high glucose) or DMEM containing 11.4% FCS was then added in order to reach a final FCS concentration of 10%, without removing the overlay of CPP/Cargo complexes. Cells were returned to the incubator (37° C., 5% CO2) and assayed at 72 hours post transfection.\nK562 and HEpG2 cells were set up to be at about 70% confluence at the time of transfection. The cells were maintained in high glucose DMEM media with 10% serum. Before transfection, cells were harvested by centrifugation, then washed with DMEM (2×) followed by PBS (1×). Cells were then resuspended in 0.2 ml of complex solution (16 μl CPP/Cargo complex in water+184 μl OPTiMEM without antibiotics), mixed gently, and incubated for 10 min at 37° C. 0.8 mL of fresh OPTiMEM was then added and cells were incubated for 20 min at 37° C. 2 mL of complete OPTiMEM (high glucose) containing 11.4% FCS was then added in order to reach a final FCS concentration of 10%, without removing the overlay of CPP/Cargo complexes. Cells were returned to the incubator (37° C., 5% CO2) and assayed at 72 hours post transfection.\nRNAiMAX lipid-based delivery (Invitrogen Thermo Fisher France) was used as a control and transfections were performed following the manufacturer's instructions. CAS9 expression level was analyzed at multiple time points over a period of 10 days as determined by ELISA on protein extracts using antibodies against CRISPR/Cas9 obtained from Diagenode (Diagenode cat. No. C15200223) and ABCAM (clone 7A9-ab191468)."}, "[7]": {"system": "primary human T cells", "test": "CAS9 protein expression in primary human T cells after CAS9 mRNA or plasmid delivery (ELISA)", "type": "cell-based", "conditions": "day 3", "quoted_text": "T cells were isolated from PBMCs using anti-CD3/anti-CD28 antibodies bound to paramagnetic beads (Dynabeads ClinExVivo CD3/CD28, Invitrogen) at a ratio of 3:1 (beads:cells). The cells and beads were co-incubated for 2 hours at room temperature and CD3^+ cell enrichment was performed using Dynal ClinExVIVO MPC magnet (Thermo Fisher). The anti-CD3/anti-CD28 paramagnetic beads were removed, washed and concentrated. Cells in the CD3^+ fraction were resuspended in activation media at a concentration of 1×10^6 cells/ml with AIM-V medium (Thermo Fishers) supplemented with 10% fetal calf serum, 300 IU/ml IL2 and 50 ng/ml OKT3 (MuromonAB-CD3) for two days.\nCPP/CAS9 complexes were formed by mixing the CAS9 mRNA (0.5 μg) with CPP at a 20:1 molar ratio of CPP:CAS9 mRNA and incubating for 30 min at 37° C. prior to cell transfection. CPP/CAS9-expressing plasmid complexes were formed by mixing the CAS9-expressing plasmid (Addgene MLM3639-Plasmid #42252) (0.5 μg) with CPP at a 20:1 molar ratio of CPP:plasmid and incubating for 30 min at 37° C. prior to cell transfection.\nCells were transfected according to the protocol for suspension cells described in Example 13a. RNAiMAX and lipofectamine 2000 lipid-based delivery methods (Invitrogen Thermo Fisher France) were used as controls, and transfections were performed following the manufacturer's instructions. CAS9 protein expression level was analyzed at multiple time points over a period of 10 days as determine by ELISA on protein extracts using antibodies against CRISPR/Cas9 obtained from Diagenode (Diagenode cat. No. C15200223) and ABCAM (clone 7A9-ab191468)."}, "[8]": {"system": "E-Catenin gene in mouse muscle myoblast cells (C2C12)", "test": "ü-Catenin gene disruption in C2C12 myoblasts (PCR gel)", "type": "cell-based", "conditions": "undifferentiated and differentiated C2C12", "experimental": "Cells were transfected with CAS9/gRNA (2.5 μM/5 μM) complexes associated with CPP (+) or not (−) at a molar ratio of 20:1 (peptide to complex) and compared to delivery by RNAiMAX for E-Catenin expression. ü-actin expression was included as a loading control.\nas §1, §2, §3"}, "[9]": {"system": "Swiss mice", "conditions": "other tissues examined", "quoted_text": "At 72 hours following injection, animals were sacrificed and tissues including lung, liver, brain, kidney, heart, spleen, blood, and pancreas were collected. Tissues were homogenized and CAS9 expression was analyzed by western blot on protein extract using antibody against CRISPR/Cas9 (Diagenode cat. No. C15200223) or by ELISA using Cas9 monoclonal antibody (SBI clone 7A9)."}, "[10]": {"system": "EGFP reporter gene in EGFP-U2OS cells", "quoted_text": "ADGN-100 was evaluated for cellular delivery of a plasmid encoding CAS9 and gRNA targeting a specific site in the exogenous EGFP gene reporter in U2OS cells (EGFP-U2OS).\nStock solutions of amphipathic peptides were prepared at 1 mg/mL in distilled water and sonicated for 10 min.\nEGFP-U2OS cells containing a single integrated EGFP reporter gene were cultured in Dulbecco's Modified Eagle's Medium (DMEM), supplemented with 2 mM glutamine, 1% antibiotics (streptomycin 10,000 μg/mL, penicillin, 10,000 IU/mL) and 10% (w/v) foetal calf serum (FCS), at 37° C. in a humidified atmosphere containing 5% CO2. A total of 150,000 cells seeded in a 35 mm dish the day prior to transfection were grown to 50-60% confluence and overlaid with 200 μl of preformed complexes, incubated for 3-5 min, then 400 μl of DMEM was added. After 30 min incubation at 37° C., 1 mL of fresh DMEM containing 16% FCS was added to reach a final FCS concentration of 10%, without removing the overlay of CPP/CAS9-gRNA complexes. Cells were returned to the incubator for 72 hours.\nCAS9-induced double-strand break formation was analyzed using flow cytometry by monitoring the level of EGFP expression. […] Lipofectamine 2000 delivery was used as positive control."}, "[11]": {"system": "endogenous EMX1 gene in U2OS, HEPG2, K562 cells and primary human fibroblasts", "test": "EMX1 editing from CPP delivery of CAS9 mRNA/gRNA (T7E1)", "type": "cell-based", "quoted_text": "CPP/CAS9 mRNA/gRNA complexes were formed by mixing the CAS9 mRNA (0.5 μg) and gRNA (5 μg) with CPP at a 20:1 molar ratio of CPP:cargo and incubating for 30 min at 37° C. prior to cell transfection. Suspension and adherent cells were transfected according to the protocols described in Example 13a. RNAiMAX-mediated delivery (Invitrogen Thermo Fisher France) was used as a control. EMX1 gene editing was analyzed at day 3 and day 6 by T7E1 assay and quantified using a Fragment Analyzer System."}, "[12]": {"system": "endogenous hPD1 gene in JURKAT and K562 cells", "test": "hPD1 gene editing in T cell lines (T7E1 assay)", "type": "cell-based, human", "experimental": "CAS9 protein was preloaded with purified sgRNA at a molar ratio of 1:1 and incubated for 10 min prior to forming complexes with peptides.\n5×10^6 cells were washed twice with DPBS by centrifuging at 800 rpm for 5 minutes and resuspended in 100 ^l transfection buffer, and then transferred into the electroporation cuvette. An optimized program selected for both high transfection and high efficiency on T cells was used. After electroporation, cells were resuspended in 500 ^l pre-warmed AIM-V medium containing 10% FBS and incubated at 37° C. in 5% CO2. The transfection efficiency was evaluated after 48 hr by flow cytometry or T7E1 assay.\nRNAiMAX delivery method was used as positive control. Cells were either resuspended in or overlaid with 100 μl of preformed complexes, incubated for 3-5 min, and then 300 μl of DMEM was added. […] The indel frequency in the hPD1 gene was quantified using the T7E1 assay."}}, "note": "Like-named read-outs stand apart in the source and are kept apart here.", "data": [{"smiles": "CC(C)C[C@H](NC(=O)[C@H](CCCNC(=N)N)NC(=O)[C@H](Cc1c[nH]c2ccccc12)NC(=O)[C@H](CCCNC(=N)N)NC(=O)[C@H](Cc1c[nH]c2ccccc12)NC(=O)CNC(=O)[C@H](C)NC(=O)[C@H](CO)NC(=O)[C@H](CCCNC(=N)N)NC(=O)[C@H](Cc1c[nH]c2ccccc12)NC(=O)[C@H](CCCCN)NC(=O)CCN)C(=O)N[C@@H](Cc1c[nH]c2ccccc12)C(=O)N[C@@H](CCCNC(=N)N)C(=O)N[C@H](C(=O)N[C@@H](CCCNC(=N)N)C(=O)N[C@@H](CO)C(=O)N[C@@H](Cc1c[nH]c2ccccc12)C(=O)N[C@@H](CO)C(=O)N[C@@H](CCCNC(=N)N)C(=O)O)C(C)C", "note": "[ADGN-100a]", "values": [{"measurement": "toxicity", "setting": "[1]", "value": "no toxicity"}, {"measurement": "toxicity", "setting": "[2]", "value": "no toxicity"}, {"measurement": "Mean indel Frequency ± S.E.M", "setting": "[3]; AAVS", "value": "71 ± 5", "unit": "%"}, {"measurement": "Mean indel Frequency ± S.E.M", "setting": "[3]; EMX1", "value": "75 ± 5", "unit": "%"}, {"measurement": "Mean indel Frequency ± S.E.M", "setting": "[3]; HPRT", "value": "70 ± 4", "unit": "%"}, {"measurement": "Mean indel Frequency ± S.E.M", "setting": "[4]; JURKAT, EGFP", "value": "78 ± 4", "unit": "%"}, {"measurement": "Mean indel Frequency ± S.E.M", "setting": "[4]; JURKAT, EMX1", "value": "76 ± 7", "unit": "%"}, {"measurement": "Mean indel Frequency ± S.E.M", "setting": "[4]; U2OS, EGFP, 25 nM each complex", "value": "77 ± 6", "unit": "%"}, {"measurement": "Mean indel Frequency ± S.E.M", "setting": "[4]; U2OS, EMX1", "value": "72 ± 8", "unit": "%"}, {"measurement": "mean indel frequency", "setting": "[5]; differentiated C2C12", "value": 47, "unit": "%"}, {"measurement": "mean indel frequency", "setting": "[5]; undifferentiated C2C12, 5 μg/10 μg CAS9/gRNA, 20:1", "value": 79, "unit": "%"}, {"measurement": "ELISA signal for CAS9 protein expression", "setting": "[6]; U2OS, K562, HepG2, CAS9 mRNA 0.5 μg", "value": "about 25 times the background"}, {"measurement": "ELISA signal for CAS9 protein expression", "setting": "[6]; primary human fibroblasts", "value": "about 20 times the background"}, {"measurement": "ELISA signal for CAS9 protein expression", "setting": "[7]; CAS9-expressing plasmid 0.5 μg", "value": "about 4 times the background"}, {"measurement": "ELISA signal for CAS9 protein expression", "setting": "[7]; CAS9 mRNA 0.5 μg", "value": "about 15 times the background"}, {"measurement": "editing of ü-Catenin and HPRT genes", "setting": "[8]", "value": "robust editing"}, {"measurement": "CAS9 protein expression", "setting": "[9]", "value": "No significant increase"}, {"measurement": "decrease in EGFP expression", "setting": "[10]; molar ratio 10:1 of ADGN-100a to each nucleic acid", "value": 23, "unit": "%"}, {"measurement": "decrease in EGFP expression", "setting": "[10]; molar ratio 20:1", "value": 38, "unit": "%"}, {"measurement": "mean indel frequencies", "setting": "[11]", "value": "about 60%"}, {"measurement": "Mean indel Frequency ± s.e.m", "setting": "[12]; JURKAT, CAS9/sgRNA 2.5 μg/5 μg", "value": "70 ± 5", "unit": "%"}, {"measurement": "Mean indel Frequency ± s.e.m", "setting": "[12]; JURKAT, CAS9/sgRNA 5 μg/10 μg", "value": 72, "unit": "%"}, {"measurement": "Mean indel Frequency ± s.e.m", "setting": "[12]; JURKAT, CAS9/sgRNA 5 μg/10 μg, listed as ADGN400a", "value": "72 ± 2", "unit": "%"}, {"measurement": "Mean indel Frequency ± s.e.m", "setting": "[12]; K562, CAS9/sgRNA 2.5 μg/5 μg", "value": "68 ± 2", "unit": "%"}, {"measurement": "Mean indel Frequency ± s.e.m", "setting": "[12]; K562, CAS9/sgRNA 5 μg/10 μg", "value": 71, "unit": "%"}, {"measurement": "Mean indel Frequency ± s.e.m", "setting": "[12]; K562, CAS9/sgRNA 5 μg/10 μg, listed as ADGN400a", "value": "71 ± 5", "unit": "%"}]}]}
